Experimental data published in patent EP0416804B1, “External preparation containing amusulosin” (YAMANOUCHI PHARMACEUTICAL CO., LTD., priority 1989, dated 1991).
Values after ≈ are worked out from the molar mass of the structure shown. Where two headings read alike, the source gives them in different places.

Columns and labels:
[1] = Solubility of AB-250 in water, ethanol and aqueous alcohol; assay type: physicochemical
Description: 1. Data on the solubility increasing effect of aqueous alcohol:
The solubility of AB-250 in water of pH 5-7 was 0.4% and that in ethanol was 0.03%.
It is, thus, evident that the use of aqueous ethanol results in a remarkable increase in the solubility of the active compound.

ai-receptor = conditions: compared with prazosin hydrochloride; cited from earlier work
[2] = system: rabbit prostate, urethra and vesical triangle (trigone of the bladder); conditions: rabbit tissues; cited from earlier work
[3] = system: human urethra and vesical triangle; conditions: human tissues; cited from earlier work

Row | Structure (SMILES) | solubility ([1]; 50% ethanol, organic solvent or mixture, Michaelis buffer containing 50% of ethanol, pH 8, read-out: solubility in aqueous ethanol containing 50% of ethanol) [mg/mL] | solubility ([1]; 60% ethanol, organic solvent or mixture, Michaelis buffer containing 60% of ethanol, pH 7, read-out: solubility in aqueous ethanol containing 60% of ethanol) [mg/mL] | greater solubility in aqueous alcohol ([1]; aqueous alcohol compared with water and pure alcohol) | solubility ([1]; ethanol, organic solvent or mixture, read-out: solubility in ethanol) [mg/mL] | solubility increasing effect with isopropyl alcohol in lieu of ethanol ([1]; isopropyl alcohol used in lieu of ethanol) | solubility ([1]; water of pH 5-7, read-out: solubility in water) [mg/mL] | ai-receptor blocking activity (ai-receptor) | contraction of the rabbit prostate, urethra and vesical triangle [2] | contraction of the human urethra and vesical triangle [3]
1 | CCOc1ccccc1OCCNC(C)Cc1ccc(OC)c(S(N)(=O)=O)c1 (stereo not drawn) [AB-250, 5-[2-[[2-(o-Ethoxyphenoxy)-ethyl]amino]propyl]-2-methoxybenzenesulfonamide] | 51 (≈ 125 mM) | 48 (≈ 117 mM) | no less than 10 fold | 0.3 (≈ 0.734 mM) | More or less the same effect | 4 (≈ 9.79 mM) | – | – | –
2 | CCOc1ccccc1OCCNC(C)Cc1ccc(OC)c(S(N)(=O)=O)c1 (stereo not drawn) [amusulosin, 5-[2-[[2-(o-Ethoxyphenoxy)-ethyl]amino]propyl]-2-methoxybenzenesulfonamide] | – | – | – | – | – | – | higher than that of prazosin hydrochloride | reduces the contraction | reduces the contraction
